Data published in PubChem BioAssay (NCI).
Values joined by “and” are separate entries in the source; they are usually repeats but may differ in a detail not shown here. Identical values can stand only once.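 Method: 48-hour compound exposure of cells in 96-well plates, five concentrations, linear interpolation of endpoints. GI50 = concentration required for 50% inhibition of growth. TGI is the concentration that stops growth completely.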

Tests used:
Experiment in all cases: NCI anticancer screen, dose series, 48 h
[1] = system: A498 renal
[2] = system: COLO 205 colon
[3] = system: DU-145 prostate
[4] = system: EKVX NSCLC
[5] = system: HOP-62 NSCLC
[6] = system: MCF7 breast
[7] = system: OVCAR-4 ovarian
[8] = system: OVCAR-8 ovarian
[9] = system: SN12C renal
[10] = system: TK-10 renal

Row | Compound | TGI [1] | TGI [2] | TGI [3] | TGI [4] | TGI [5] | TGI [6] | TGI [7] | TGI [8] | TGI [9] | TGI [10] | GI50 [2] | GI50 [4] | GI50 [7] | GI50 [8] | GI50 [9]
1 | CC/C=C\C/C=C\C/C=C\CCCCCCCC(=O)OC(COC(=O)CCCCCCCCCCCCCCCCC)COC1OC(CO)C(O)C(O)C1O (stereo not given) | > 25 µM | > 25 µM | > 25 µM | > 25 µM | > 25 µM | > 25 µM | > 25 µM | > 25 µM | > 25 µM | > 25 µM |  |  |  |  | 
2 | O=CN(O)CC(=O)O | > 100 µM | > 100 µM | > 100 µM | > 100 µM | > 100 µM | > 100 µM | > 100 µM | > 100 µM | > 100 µM | > 100 µM |  |  |  |  | 
3 | Cc1cccc(NC(Nc2cccc(C)c2)=C(C(Cl)=C(Cl)Cl)[N+](=O)[O-])c1 | > 86 µM | 28.3 µM | > 57.5 µM | > 59 µM | 41.7 µM | > 100 µM | > 82 µM | 27.6 µM | 24 µM | 28.5 µM |  |  |  |  | 
4 | CC(O)(C(=O)N(O)c1ccc(Cl)cc1)c1ccc(Cl)cc1 (stereo not given) | 71.7 µM | 33 µM | > 100 µM | > 100 µM | 93 µM | > 100 µM | > 100 µM | > 100 µM | > 100 µM | > 100 µM |  |  |  |  | 
5 | CNc1ccc2c(c1)Cc1ccccc1-2 | 71.1 µM | > 100 µM | > 100 µM | > 100 µM | > 100 µM | > 100 µM | > 100 µM | 59.6 µM | > 100 µM | 93.8 µM |  |  |  |  | 
6 | COC(=O)C1=C(C(=O)OC)C2(C)CCC(=O)C1O2 (stereo not given) | > 10 µM | > 10 µM | > 10 µM | > 10 µM | > 10 µM | > 10 µM | > 10 µM | > 10 µM | > 10 µM | > 10 µM |  |  |  |  | 
7 | Cc1ccc2c(c1)C(=O)/C(=C\c1ccc(Cl)cc1)CCS2(=O)=O | 26.4 µM | 15.6 µM | 8.15 µM | 25.3 µM | > 47.2 µM | 14 µM | 6.93 µM | 5.39 µM | 8.37 µM | 5.11 µM |  |  |  |  | 
8 | CN(C)c1nc(=NCc2ccccn2)ss1 | > 10 µM | > 10 µM | > 10 µM | > 10 µM | > 10 µM | > 10 µM | > 10 µM | > 10 µM | > 10 µM | > 10 µM |  |  |  |  | 
9 | Clc1cccc(C2ON=C(c3ccccc3)N2C23CC4CC(CC(C4)C2)C3)c1Cl (stereo not given) | > 10 µM | > 10 µM | > 10 µM | > 10 µM | > 10 µM | > 10 µM | > 10 µM | > 10 µM | > 10 µM | > 10 µM |  |  |  |  | 
10 | O=[N+]([O-])c1ccc2nc3c(nc2c1)-c1c2ccccc2cc2cccc-3c12 | 2.37 µM | > 100 µM | > 100 µM | > 100 µM | 77.2 µM | > 100 µM | > 100 µM | > 30.6 µM | > 100 µM | > 100 µM |  |  |  |  | 
11 | O=S1(=O)c2ccccc2NC(=S)N1c1ccccc1 | > 94.5 µM | > 100 µM | > 100 µM | > 100 µM | > 100 µM | > 100 µM | > 100 µM | > 100 µM | > 100 µM | > 100 µM |  |  |  |  | 
12 | COCC(=O)OC1CCn2c1nc1c2C(=O)C(C)=C(NC(C)=O)C1=O (stereo not given) | 49.2 µM | 29.9 µM | 22.2 µM | 20.3 µM | 41.1 µM | 3.53 µM and 3.75 µM | 2.79 µM and 4.25 µM | 12 µM | 18.9 µM | 34.5 µM | 8.72 µM | 3.75 µM | 1.43 µM | 2.92 µM | 4.62 µM
13 | COc1ccc(CCCCl)c(C2=NCCc3ccccc32)c1 | > 100 µM | 82.8 µM | > 100 µM | > 100 µM | > 100 µM | > 100 µM | > 100 µM | > 100 µM | > 100 µM | > 100 µM |  |  |  |  | 
14 | CCOC(=O)c1ccc(C(=O)/C(C(=O)OC(C)(C)C)=C2\CCCN2C)n1C | > 100 µM | > 100 µM | > 100 µM | > 100 µM | > 100 µM | > 100 µM | > 100 µM | > 100 µM | > 100 µM | > 100 µM |  |  |  |  | 
15 | CC(C)(C)c1ccc2c(c1)OCc1n[nH]c(n1)COc1cc(C(C)(C)C)ccc1OCCOCCO2 | 21.3 µM | 12.6 µM | 20.6 µM | 17.7 µM | 19.2 µM | 12.8 µM | 7.45 µM | 14.3 µM | 16.7 µM | 8.14 µM |  |  |  |  | 
16 | CC1=NC(C)(C)N(O)C1(C)C | > 100 µM | > 100 µM | > 100 µM | > 100 µM | > 100 µM | > 100 µM | > 100 µM | > 100 µM | > 100 µM | > 100 µM |  |  |  |  | 
17 | COc1ccc(/C=N/Nc2nc3ccccc3c(=O)n2-c2ccccc2)c(OCc2ccccc2)c1 | > 100 µM | > 100 µM | > 100 µM | > 100 µM | > 100 µM | > 100 µM | > 100 µM | > 100 µM | > 100 µM | > 100 µM |  |  |  |  | 
